According to ChEMBL document CHEMBL4118082 (Eur J Med Chem, 2017):
Values after ≈ are worked out from the molar mass of the structure shown.

How the values were obtained:
Type in all cases: functional
[1] = test system: Mycobacterium tuberculosis; assay: Growth inhibition of Mycobacterium tuberculosis H37Ra Lehmann and Neumann ATCC 25177 harboring pSMT1 luciferase reporter at 0.1 uM after 6 days by luminescence based serial dilution method relative to control; details: H37Ra Lehmann and Neumann ATCC 25177, 144 h, read-out: GI
[2] = test system: Mycobacterium tuberculosis; assay: Growth inhibition of Mycobacterium tuberculosis H37Ra Lehmann and Neumann ATCC 25177 harboring pSMT1 luciferase reporter at 1 uM after 6 days by luminescence based serial dilution method relative to control; details: H37Ra Lehmann and Neumann ATCC 25177, 144 h, read-out: GI
[3] = test system: Mycobacterium tuberculosis; assay: Growth inhibition of Mycobacterium tuberculosis H37Ra Lehmann and Neumann ATCC 25177 harboring pSMT1 luciferase reporter at 10 uM after 6 days by luminescence based serial dilution method relative to control; details: H37Ra Lehmann and Neumann ATCC 25177, 144 h, read-out: GI
[4] = test system: Mycobacterium tuberculosis; assay: Antimycobacterial activity against Mycobacterium tuberculosis H37Ra Lehmann and Neumann ATCC 25177 harboring pSMT1 luciferase reporter after 6 days by luminescence based serial dilution method; details: H37Ra Lehmann and Neumann ATCC 25177, 144 h

## CC(=O)Oc1cc(=O)[nH]c2ccccc12
[1]
  inhibition of growth at 0.1 µM: 14.5%
[2]
  inhibition of growth at 1 µM: 21.1%
[3]
  inhibition of growth at 10 µM: 35.4%

## O=c1c(-c2ccccc2)c(O)c2ccccc2n1-c1ccccc1
[4]
  MIC90: 6.4 µM (≈ 2.01 µg/mL)
[1]
  inhibition of growth at 0.1 µM: 30.1%
[2]
  inhibition of growth at 1 µM: 53.7%
[3]
  inhibition of growth at 10 µM: 98.3%

## Cn1c(=O)c(-c2ccccc2)c(O)c2ccccc21
[1]
  inhibition of growth at 0.1 µM: 29.8%
[2]
  inhibition of growth at 1 µM: 49.5%
[3]
  inhibition of growth at 10 µM: 87.2%

## Oc1nc2ccccc2c(O)c1Cc1ccccc1
[1]
  inhibition of growth at 0.1 µM: 7.5%
[2]
  inhibition of growth at 1 µM: 40.2%
[3]
  inhibition of growth at 10 µM: 53.5%

## CCCc1c(O)c2ccccc2n(-c2ccccc2)c1=O
[1]
  inhibition of growth at 0.1 µM: 10.4%
[2]
  inhibition of growth at 1 µM: 46.3%
[3]
  inhibition of growth at 10 µM: 56.6%

## CCn1c(=O)c(-c2ccccc2)c(O)c2ccccc21
[1]
  inhibition of growth at 0.1 µM: 0%
[2]
  inhibition of growth at 1 µM: 0%
[3]
  inhibition of growth at 10 µM: 8.2%

## COc1cccc2c(O)c(-c3ccccc3)c(O)nc12
[4]
  MIC90: 7.9 µM (≈ 2.11 µg/mL)
[1]
  inhibition of growth at 0.1 µM: 42.5%
[2]
  inhibition of growth at 1 µM: 47.5%
[3]
  inhibition of growth at 10 µM: 95%

## Cc1c(O)c2ccccc2n(-c2ccccc2)c1=O
[1]
  inhibition of growth at 0.1 µM: 36%
[2]
  inhibition of growth at 1 µM: 48.5%
[3]
  inhibition of growth at 10 µM: 74.5%

## Oc1nc2ccccc2c(O)c1-c1ccccc1
[4]
  MIC90: 8.5 µM (≈ 2.02 µg/mL)
[1]
  inhibition of growth at 0.1 µM: 56%
[2]
  inhibition of growth at 1 µM: 59.2%
[3]
  inhibition of growth at 10 µM: 92.4%

## CCc1c(O)c2cc(OC)ccc2[nH]c1=O
[1]
  inhibition of growth at 0.1 µM: 0%
[2]
  inhibition of growth at 1 µM: 56.3%
[3]
  inhibition of growth at 10 µM: 68.2%

## CCc1c(OC(C)=O)c2ccc(OC)cc2[nH]c1=O
[1]
  inhibition of growth at 0.1 µM: 0%
[2]
  inhibition of growth at 1 µM: 15.3%
[3]
  inhibition of growth at 10 µM: 28.6%

## CCc1c(O)c2ccccc2n(-c2ccccc2)c1=O
[1]
  inhibition of growth at 0.1 µM: 22.5%
[2]
  inhibition of growth at 1 µM: 34.8%
[3]
  inhibition of growth at 10 µM: 25.6%

## CCc1c(O)c2ccc(O)cc2[nH]c1=O
[1]
  inhibition of growth at 0.1 µM: 25.6%
[2]
  inhibition of growth at 1 µM: 34.3%
[3]
  inhibition of growth at 10 µM: 49.4%

## CCc1c(OC(C)=O)c2cccc(OC)c2[nH]c1=O
[1]
  inhibition of growth at 0.1 µM: 0%
[2]
  inhibition of growth at 1 µM: 13.3%
[3]
  inhibition of growth at 10 µM: 31.2%

## O=c1c(Cc2ccccc2)c(O)c2ccccc2n1Cc1ccccc1
[1]
  inhibition of growth at 0.1 µM: 24.8%
[2]
  inhibition of growth at 1 µM: 38.8%
[3]
  inhibition of growth at 10 µM: 49.5%

## COc1ccc2[nH]c(=O)c(-c3ccccc3)c(OC(C)=O)c2c1
[1]
  inhibition of growth at 0.1 µM: 22.5%
[2]
  inhibition of growth at 1 µM: 43.2%
[3]
  inhibition of growth at 10 µM: 79.6%

## CCc1c(OC(C)=O)c2ccccc2[nH]c1=O
[1]
  inhibition of growth at 0.1 µM: 3.5%
[2]
  inhibition of growth at 1 µM: 9.4%
[3]
  inhibition of growth at 10 µM: 29.4%

## COc1cccc2c(OC(C)=O)c(-c3ccccc3)c(=O)[nH]c12
[1]
  inhibition of growth at 0.1 µM: 8.9%
[2]
  inhibition of growth at 1 µM: 32.5%
[3]
  inhibition of growth at 10 µM: 76.3%

## CCc1c(O)c2ccc(OC)cc2[nH]c1=O
[1]
  inhibition of growth at 0.1 µM: 23.7%
[2]
  inhibition of growth at 1 µM: 36%
[3]
  inhibition of growth at 10 µM: 60.8%

## CCCCc1c(O)c2ccccc2n(-c2ccccc2)c1=O
[1]
  inhibition of growth at 0.1 µM: 34.4%
[2]
  inhibition of growth at 1 µM: 46.3%
[3]
  inhibition of growth at 10 µM: 47.3%

## CCc1c(O)c2cc(F)ccc2[nH]c1=O
[1]
  inhibition of growth at 0.1 µM: 40%
[2]
  inhibition of growth at 1 µM: 51.3%
[3]
  inhibition of growth at 10 µM: 57.3%

## CCc1c(O)c2c(C)ccc(C)c2[nH]c1=O
[1]
  inhibition of growth at 0.1 µM: 16.9%
[2]
  inhibition of growth at 1 µM: 46.4%
[3]
  inhibition of growth at 10 µM: 86.2%

## CCc1c(O)c2ccccc2[nH]c1=O
[1]
  inhibition of growth at 0.1 µM: 59.2%
[2]
  inhibition of growth at 1 µM: 78.2%
[3]
  inhibition of growth at 10 µM: 98.6%

## COc1ccc2[nH]c(=O)c(-c3ccccc3)c(O)c2c1
[4]
  MIC90: 8.7 µM (≈ 2.33 µg/mL)
[1]
  inhibition of growth at 0.1 µM: 9.4%
[2]
  inhibition of growth at 1 µM: 24.5%
[3]
  inhibition of growth at 10 µM: 90.8%

## CCCCc1c(O)c2ccccc2n(C)c1=O
[1]
  inhibition of growth at 0.1 µM: 0%
[2]
  inhibition of growth at 1 µM: 10.5%
[3]
  inhibition of growth at 10 µM: 23.9%

## CCCCc1c(O)c2cc(OC)cc(OC)c2[nH]c1=O
[1]
  inhibition of growth at 0.1 µM: 0%
[2]
  inhibition of growth at 1 µM: 10.7%
[3]
  inhibition of growth at 10 µM: 62.6%

## O=c1[nH]c2ccc(O)cc2c(O)c1-c1ccccc1
[4]
  MIC90: 8.3 µM (≈ 2.1 µg/mL)
[1]
  inhibition of growth at 0.1 µM: 32.3%
[2]
  inhibition of growth at 1 µM: 52.1%
[3]
  inhibition of growth at 10 µM: 95.1%

## CCCCc1c(O)c2c(Cl)ccc(C)c2[nH]c1=O
[1]
  inhibition of growth at 0.1 µM: 30%
[2]
  inhibition of growth at 1 µM: 38.7%
[3]
  inhibition of growth at 10 µM: 59.1%

## O=c1c(Cc2ccccc2)c(O)c2ccccc2n1-c1ccccc1
[1]
  inhibition of growth at 0.1 µM: 20.3%
[2]
  inhibition of growth at 1 µM: 54.7%
[3]
  inhibition of growth at 10 µM: 56.3%

## CCc1c(OC(C)=O)c2cc(F)ccc2[nH]c1=O
[1]
  inhibition of growth at 0.1 µM: 0%
[2]
  inhibition of growth at 1 µM: 14%
[3]
  inhibition of growth at 10 µM: 44.5%

## CCc1c(O)c2cccc(OC)c2[nH]c1=O
[1]
  inhibition of growth at 0.1 µM: 65.8%
[2]
  inhibition of growth at 1 µM: 66.4%
[3]
  inhibition of growth at 10 µM: 71%

## Cc1c(O)c2ccccc2[nH]c1=O
[4]
  MIC90: 6.8 µM (≈ 1.19 µg/mL)
[1]
  inhibition of growth at 0.1 µM: 43.6%
[2]
  inhibition of growth at 1 µM: 46.6%
[3]
  inhibition of growth at 10 µM: 55.5%

## COc1ccc2c(OC(C)=O)c(-c3ccccc3)c(=O)[nH]c2c1
[1]
  inhibition of growth at 0.1 µM: 20.9%
[2]
  inhibition of growth at 1 µM: 39.7%
[3]
  inhibition of growth at 10 µM: 81.2%

## CCc1c(O)c2c(Cl)ccc(C)c2[nH]c1=O
[1]
  inhibition of growth at 0.1 µM: 33.3%
[2]
  inhibition of growth at 1 µM: 48.8%
[3]
  inhibition of growth at 10 µM: 55.1%

## CCCc1c(O)c2cc(F)ccc2[nH]c1=O
[1]
  inhibition of growth at 0.1 µM: 13.2%
[2]
  inhibition of growth at 1 µM: 38.5%
[3]
  inhibition of growth at 10 µM: 78.2%

## COc1ccc2c(O)c(-c3ccccc3)c(=O)[nH]c2c1
[4]
  MIC90: 9.1 µM (≈ 2.43 µg/mL)
[1]
  inhibition of growth at 0.1 µM: 56.5%
[2]
  inhibition of growth at 1 µM: 74.4%
[3]
  inhibition of growth at 10 µM: 98.2%

## CCCCc1c(O)c2cc(Cl)ccc2[nH]c1=O
[1]
  inhibition of growth at 0.1 µM: 21.6%
[2]
  inhibition of growth at 1 µM: 35.4%
[3]
  inhibition of growth at 10 µM: 64.8%

## Cc1c(O)c2ccccc2n(C)c1=O
[1]
  inhibition of growth at 0.1 µM: 4%
[2]
  inhibition of growth at 1 µM: 32.9%
[3]
  inhibition of growth at 10 µM: 83.8%

## O=c1c(-c2ccccc2)c(O)c2ccccc2n1Cc1ccccc1
[1]
  inhibition of growth at 0.1 µM: 31.2%
[2]
  inhibition of growth at 1 µM: 42.4%
[3]
  inhibition of growth at 10 µM: 71.5%

## CCc1c(OC(C)=O)c2cc(OC)ccc2[nH]c1=O
[1]
  inhibition of growth at 0.1 µM: 0%
[2]
  inhibition of growth at 1 µM: 10.1%
[3]
  inhibition of growth at 10 µM: 27.8%

## CCCCc1c(O)c2ccccc2n(Cc2ccccc2)c1=O
[1]
  inhibition of growth at 0.1 µM: 20.9%
[2]
  inhibition of growth at 1 µM: 25.3%
[3]
  inhibition of growth at 10 µM: 33.2%

## CC(=O)Oc1c(-c2ccccc2)c(=O)[nH]c2ccccc12
[1]
  inhibition of growth at 0.1 µM: 10.9%
[2]
  inhibition of growth at 1 µM: 35.4%
[3]
  inhibition of growth at 10 µM: 72.3%

## CC(=O)Oc1c(C)c(=O)[nH]c2ccccc12
[1]
  inhibition of growth at 0.1 µM: 19.2%
[2]
  inhibition of growth at 1 µM: 31.8%
[3]
  inhibition of growth at 10 µM: 45.2%

## CC(C)c1c(O)c2ccccc2[nH]c1=O
[1]
  inhibition of growth at 0.1 µM: 42.5%
[2]
  inhibition of growth at 1 µM: 47.4%
[3]
  inhibition of growth at 10 µM: 69.3%

## CC12CCC(c3c(O)c(-c4ccccc4)c(=O)n(-c4ccccc4)c31)C2(C)C (racemic)
[1]
  inhibition of growth at 0.1 µM: 0%
[2]
  inhibition of growth at 1 µM: 8.1%
[3]
  inhibition of growth at 10 µM: 12.5%

## CCCCc1c(O)c2c(n(-c3ccccc3)c1=O)C1(C)CCC2C1(C)C (racemic)
[1]
  inhibition of growth at 0.1 µM: 0%
[2]
  inhibition of growth at 1 µM: 1.2%
[3]
  inhibition of growth at 10 µM: 7.5%

## NNC(=O)c1ccncc1 [ISONIAZID]
[4]
  MIC90: 0.3 µM (≈ 0.0411 µg/mL)

## CO[C@H]1/C=C/O[C@@]2(C)Oc3c(C)c(O)c4c(O)c(c(/C=N/N5CCN(C)CC5)c(O)c4c3C2=O)NC(=O)/C(C)=C\C=C\[C@H](C)[C@H](O)[C@@H](C)[C@@H](O)[C@@H](C)[C@H](OC(C)=O)[C@@H]1C [RIFAMPIN]
[4]
  MIC90: 0.1 µM (≈ 0.0823 µg/mL)
